For orientation: EC50 means the concentration that produces a half-maximal response.

We go through 1 molecule from patent US20230084927A1, “GLUCOSE UPTAKE INHIBITORS AND USES THEREOF” (METABOMED LTD., priority 2019, published 2023).

Molecules are shown by their SMILES. Read-outs that look alike come from different tables or passages of the source.

Data set [1] is described as follows: Plasma glucose levels in mice after oral administration. The note with it: 2 mg/Kg. The data set is classed as in vivo. How it is done:
FIG. 8 depicts the glucose levels in mice plasma after oral administration of 2 mg/Kg of compound 111. Compound 111 at 2 mg/kg was orally administrated to mice. Blood samples were taken at different time points thereafter and Glucose level was determined.

In data set [2] the test system is SDH-KO-HRAS cells (SDHB-deficient). The experiment in a line: Cellular / differential toxicity assay (CellTiter-Glo, 3 days). It counts as cell-based, murine. The following applies: Mus musculus, 72 h, toxicity, SDH-KO cells, 3 days, CellTiter-Glo; read-out: EC50 (uM) SDH-KO-HTAS-C17. The procedure, abridged:
(§1)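 Isogenic SDHB-deficient (HRAS-transformed SDH-KO) and SDH-WT cells grown in DMEM-F12 with 1 mM glutamine and 3% FBS, plated with compound (10-point dilution from 10 uM to 0.0065 uM or lower) for 3 days at 37 °C, 5% CO2. Viability by CellTiter-Glo luminescence; EC50 calculated.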
(ATP-based viability assays read luminescence as a measure of living cells.)

In another data set the test system is SDH-WT cells. Described as above. The following applies: Mus musculus, 72 h, toxicity, SDH-WT cells, 3 days, CellTiter-Glo; read-out: EC50 (uM) SDH-WT. It counts as cell-based, murine. The procedure, abridged:
as §1

Data set [3] relates to MiaPaca2 (Pancreatic cancer). The experiment in a line: Toxicity assay with or without rotenone. It counts as cell-based. The note with it: Homo sapiens, MIA PaCa-2, 72 hours. The method, then: (§2) Toxicity assay: Cells were growing in 96 well plates in DMEM F12 with 17 mM glucose, 0.5 mM Sodium Pyruvate, 1 mM Glutamine and 3% FBS. The cells were treated with the indicated compounds (10 different concentrations) with or without 25 nM rotenone. Viability was determined after 72 hours of treatment using CellTiter Glo reagent (Promega). EC50 was calculated using Prism software.

For data set [4], the system named is MDA-MB-468 (Breast cancer). The experiment in a line: Toxicity assay with or without rotenone. It counts as cell-based. The following applies: Homo sapiens, 72 hours. How it is done: as §2
The test system of another data set is HCT116 (Colon cancer). The experiment in a line: Toxicity assay with or without rotenone. It counts as cell-based. The following applies: Homo sapiens, HCT-116, 72 hours. How it is done:
as §2

Data set [5] deals with Panc1 (Pancreatic cancer). The experiment in a line: Toxicity assay with or without rotenone. The note with it: Homo sapiens, PANC-1, 72 hours. It counts as cell-based. How it is done: as §2
The subject of a further data set is MM.1S (Multiple myeloma). The experiment in a line: Toxicity assay with or without rotenone. The data set is classed as cell-based. The note with it: Homo sapiens, MM1.S, 72 hours. How it is done: as §2
Data set [6] has as its system SDH-KO cells (SDH-deficient tumors). The experiment in a line: Tumor volume of SDH-KO cells vs. time in mice on ketogenic diet. It counts as in vivo. The following applies: treated two weeks post-injection, prior to tumor formation. An excerpt: FIG. 10 depicts the tumor volume of SDH-KO cells vs. time in mice on ketogenic diet, treated for two weeks post-injection, but prior to tumor formation.

Data set [7] in a line: Glucose levels and Maximum Tolerated Dose in mice at different diets. The data set is classed as in vivo. An excerpt: Glucose Levels as Measured in Mice after Different Dosages of Compound 111 at Different Diets.

In the case of `CC(=O)Nc1ccc(CCNc2ncnc3c2sc2nc4c(cc23)COC(C)(C)C4)cc1` [Compound 111], in data set [1], the “level of glucose in the plasma” value is reported as “increase”. The half-maximal effective concentration (EC50) is < 1 µM in [2]; > 10 µM with SDH-WT cells; 61 nM in data set [3] (MiaPaca2, with 25 nM rotenone, read-out: EC50 (nM) with Rotenone); 37000 nM in [3] (MiaPaca2, without rotenone, read-out: EC50); 1400 nM in data set [4] (MDA-MB-468, with 25 nM rotenone, read-out: EC50 (nM) with Rotenone); > 30000 nM in [4] (MDA-MB-468, without rotenone, read-out: EC50). In addition, the EC50 in the data set with HCT116 (Colon cancer) (HCT116, with 25 nM rotenone, read-out: EC50 (nM) with Rotenone) is 510 nM; with HCT116 (Colon cancer) (HCT116, without rotenone, read-out: EC50) it was 9700 nM; in data set [5] (Panc1, with 25 nM rotenone, read-out: EC50 (nM) with Rotenone) it was 91 nM; in data set [5] (Panc1, without rotenone, read-out: EC50) it was 136000 nM; in the data set on MM.1S (Multiple myeloma) (with 25 nM rotenone, read-out: EC50 (nM) with Rotenone) it was 52 nM; with MM.1S (Multiple myeloma) (without rotenone, read-out: EC50), 79000 nM. For the same molecule, the “tumor onset and growth (tumor volume vs. time)” value in [6] was “delays tumor onset and growth”. The “elevation in plasma glucose levels on ketogenic diet” value in data set [7] (ketogenic diet) is “delayed”. Also, in [7] (ketogenic diet vs other diet), the “Maximum Tolerated Dose (MTD) on ketogenic diet” value is recorded as “doubled”. Also, the “tolerability on ketogenic diet” value in data set [7] (ketogenic diet, two weeks of treatment) was “up to 4 mg/Kg”.
